The values below come from patent publication US20260258064A1 (SIRONAX LTD., priority 2023, published 2026).

Molecules are shown by their SMILES. A value given as a limit tells only on which side of the number the result lay.

By IC50 is commonly meant the midpoint of a concentration-inhibition curve.

The test concerns the target T1, SARM1 (50-724) (Homo sapiens, UniProt Q6SZW1).
T1 construct: Purified SARM1 (50-724) with a final concentration of 2 nM was pre-incubated with a test compound
T1 sequence (Q6SZW1 50-724): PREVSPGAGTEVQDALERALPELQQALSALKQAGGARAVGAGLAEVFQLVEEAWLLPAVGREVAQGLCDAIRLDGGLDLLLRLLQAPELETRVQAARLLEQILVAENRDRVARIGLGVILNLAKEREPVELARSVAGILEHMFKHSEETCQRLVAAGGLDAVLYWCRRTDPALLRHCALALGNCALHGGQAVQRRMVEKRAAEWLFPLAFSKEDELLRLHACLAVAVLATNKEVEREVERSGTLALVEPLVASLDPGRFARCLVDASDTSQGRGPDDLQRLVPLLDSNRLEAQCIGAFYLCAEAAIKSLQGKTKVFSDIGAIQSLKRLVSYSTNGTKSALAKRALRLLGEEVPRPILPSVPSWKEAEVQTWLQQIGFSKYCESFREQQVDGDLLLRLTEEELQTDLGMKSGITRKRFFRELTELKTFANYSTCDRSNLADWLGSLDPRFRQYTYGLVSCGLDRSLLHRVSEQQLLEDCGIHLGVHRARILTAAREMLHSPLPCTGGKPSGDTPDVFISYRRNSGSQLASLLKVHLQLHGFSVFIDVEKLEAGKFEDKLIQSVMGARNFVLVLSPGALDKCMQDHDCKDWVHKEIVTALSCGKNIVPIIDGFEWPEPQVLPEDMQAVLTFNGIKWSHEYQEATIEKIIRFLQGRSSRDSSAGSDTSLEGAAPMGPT
The experiment in a line: SARM1 (50-724) enzymatic assay (LC-MS/MS). The conditions noted are these: Purified SARM1 (50-724) 2 nM, NMN as activator, NAD+ as substrate, 1 h at room temperature, read-out: IC50 (SARM1 inhibitory activity). The class given is biochemical. The procedure:
An enzymatic assay was performed in a 384-well plate using Dulbecco's phosphate-buffered saline (PBS) as the reaction buffer. Purified SARM1 (50-724) with a final concentration of 2 nM was pre-incubated with a test compound at […] final assay concentration for 15 min at room temperature. The reaction was initiated by adding a mixture of […] nicotinamide mononucleotide (NMN) as activator and […] NAD^+ as substrate. After 1 h of incubation at room temperature, the reaction was terminated with 10 times volume of 70% acetonitrile, and then centrifuged at 3800 rpm for 10 min. The samples were analyzed using LC-MS/MS after diluted to a proper concentration by 10 mM ammonium acetate (pH 9.75).
In Table 2, activity is provided as follows: A: IC50≤100 nM; B: 100 nM<IC50≤500 nM; C: 500 nM<IC50≤1000 nM; D: IC50>1000 nM.
For `CC(c1cc(F)c2[nH]c(-c3nncn3-c3cnccc3C(F)(F)F)nc2c1)c1nccs1` (racemic) [Compound 412, 2-(1-(7-fluoro-2-(4-(4-(trifluoromethyl)pyridin-3-yl)-4H-1,2,4-triazol-3-yl)-1H-benzo[d]imidazol-5-yl)ethyl)thiazole], the IC50 is at most 100 nM.

For the compound `CS(=O)(=O)c1cccc(-n2cnnc2-c2nc3cc(C(F)(F)F)ccc3[nH]2)c1` [Example 52], the IC50 is over 1000 nM. For `Cn1cc(Cl)c(-n2cnnc2-c2nc3cc(C(F)(F)F)ccc3[nH]2)cc1=O` [Compound 173, 5-chloro-1-methyl-4-(3-(5-(trifluoromethyl)-1H-benzo[d]imidazol-2-yl)-4H-1,2,4-triazol-4-yl)pyridin-2(1H)-one], the IC50 fell in the range of 100 to 500 nM.

On to `Cn1cc(OC(F)(F)F)c(-n2cnnc2-c2nc3cc(C4CC4)cc(F)c3[nH]2)cc1=O` [Compound 353, 4-(3-(5-cyclopropyl-7-fluoro-1H-benzo[d]imidazol-2-yl)-4H-1,2,4-triazol-4-yl)-1-methyl-5-(trifluoromethoxy)pyridin-2(1H)-one], for which the IC50 is at most 100 nM. As to `CS(=O)(=O)Cc1nnc(-c2nc3cc(C(F)(F)F)cc(F)c3[nH]2)n1-c1cccc(Cl)c1Cl` (single isomer, unassigned) [Compound 187, 2-(4-(2,3-Dichlorophenyl)-5-((methylsulfonyl)methyl)-4H-1,2,4-triazol-3-yl)-7-fluoro-5-(trifluoromethyl)-1H-benzo[d]imidazole], the IC50 was at most 100 nM. For `CC(C)(C#N)c1ccc2[nH]c(-c3nncn3-c3cccc(Cl)c3Cl)nc2c1` [Example 112] the value was at most 100 nM; for `NC(=O)c1cc(-n2cnnc2-c2nc3cc(C(F)(F)F)ccc3[nH]2)c(Cl)cn1` [Compound 211, 5-chloro-4-(3-(5-(trifluoromethyl)-1H-benzo[d]imidazol-2-yl)-4H-1,2,4-triazol-4-yl)picolinamide], at most 100 nM. In the case of `Cn1ccc(C(F)(F)F)c(-n2cnnc2-c2nc3cc(C(F)(F)F)ccc3[nH]2)c1=O` [Compound 279, 1-methyl-4-(trifluoromethyl)-3-(3-(5-(trifluoromethyl)-1H-benzo[d]imidazol-2-yl)-4H-1,2,4-triazol-4-yl)pyridin-2(1H)-one] it was over 1000 nM; in that of `OC1CC(OCc2nnc(-c3nc4cc(C(F)(F)F)ccc4[nH]3)n2-c2cccc(Cl)c2Cl)C1` (centres unmarked) [Example 127], at most 100 nM. In the case of `Cc1nocc1-n1cnnc1-c1nc2cc(C(F)(F)F)ccc2[nH]1` [Compound 269, 3-methyl-4-(3-(5-(trifluoromethyl)-1H-benzo[d]imidazol-2-yl)-4H-1,2,4-triazol-4-yl)isoxazole] it was over 1000 nM; in that of `FC(F)(F)c1ccc2[nH]c(-c3nncn3-c3cccn4ccnc34)nc2c1` [Example 70], over 1000 nM. Turning to `Clc1cccc(-n2cnnc2-c2nc3cc(C4CCOC4)ccc3[nH]2)c1Cl` (centres unmarked) [Example 128, 2-(4-(2,3-dichlorophenyl)-4H-1,2,4-triazol-3-yl)-5-(tetrahydrofuran-3-yl)-1H-benzo[d]imidazole], the IC50 was at most 100 nM. In the case of `Fc1cc(C2CC23CCOC3)cc2nc(-c3nncn3-c3cnccc3C(F)(F)F)[nH]c12` (centres unmarked) [Compound 414, 7-fluoro-5-(5-oxaspiro[2.4]heptan-2-yl)-2-[4-[4-(trifluoromethyl)-3-pyridyl]-1,2,4-triazol-3-yl]-1H-benzimidazole] it was at most 100 nM. With `FC(F)c1nnc(-c2nc3cc(C(F)(F)F)ccc3[nH]2)n1-c1cnccc1C(F)(F)F` [Compound 306, 2-(5-(difluoromethyl)-4-(4-(trifluoromethyl)pyridin-3-yl)-4H-1,2,4-triazol-3-yl)-5-(trifluoromethyl)-1H-benzo[d]imidazole], the IC50 is at most 100 nM. `Cc1ccc2[nH]c(-c3c(-c4cccc(Cl)c4Cl)cnn3C)nc2c1` [Example 34]: the IC50 is over 1000 nM. In the case of `CN(CCC(N)=O)c1cc(F)c2[nH]c(-c3nncn3-c3cnccc3C(F)(F)F)nc2c1` [Compound 450, 3-((4-fluoro-2-(4-(4-(trifluoromethyl)pyridin-3-yl)-4H-1,2,4-triazol-3-yl)-1H-benzo[d]imidazol-6-yl)(methyl)amino)propanamide] it was at most 100 nM; in that of `Cc1ccc2[nH]c(-c3cc(CO)cn3C3CCCC3)nc2c1` [Compound 16, (1-Cyclopentyl-5-(5-methyl-1H-benzo[d]imidazol-2-yl)-1H-pyrrol-3-yl)methanol], 500 to 1000 nM; in that of `Cc1nccc(-n2cnnc2-c2nc3cc(C(F)(F)F)ccc3[nH]2)c1Cl` [Example 71], 100 to 500 nM. For the compound `Clc1cccc(-n2cnnc2-c2nc3cc(-c4cncs4)ccc3[nH]2)c1Cl` [Example 78, 5-(2-(4-(2,3-dichlorophenyl)-4H-1,2,4-triazol-3-yl)-1H-benzo[d]imidazol-5-yl)thiazole], the IC50 lay in the range of 100 to 500 nM.

Turning to `O=C1CCCN1c1ccc2[nH]c(-c3nncn3-c3cccc(Cl)c3Cl)nc2c1` [Example 137, 1-(2-(4-(2,3-dichlorophenyl)-4H-1,2,4-triazol-3-yl)-1H-benzo[d]imidazol-5-yl)pyrrolidin-2-one], the IC50 is over 1000 nM.

As for `Cc1ccc2[nH]c(-c3cc(C(N)=O)cn3C3CCCC3)nc2c1` [Compound 20, 1-cyclopentyl-5-(5-methyl-1H-benzo[d]imidazol-2-yl)-1H-pyrrole-3-carboxamide], the IC50 fell in the range of 500 to 1000 nM. In the case of `Cc1nccc(C(F)(F)F)c1-n1cnnc1-c1nc2cc(C(F)(F)F)ccc2[nH]1` [Compound 246, 2-(4-(2-methyl-4-(trifluoromethyl)pyridin-3-yl)-4H-1,2,4-triazol-3-yl)-5-(trifluoromethyl)-1H-benzo[d]imidazole] it was at most 100 nM.

For `FC(F)(F)c1ncc2[nH]c(-c3nncn3-c3cnccc3C(F)(F)F)cc2n1` [Compound 378, 2-(trifluoromethyl)-6-(4-(4-(trifluoromethyl)pyridin-3-yl)-4H-1,2,4-triazol-3-yl)-5H-pyrrolo[3,2-d]pyrimidine], the IC50 is over 1000 nM. For `CS(=O)(=O)Cc1c(-c2nncn2-c2cnccc2C(F)(F)F)[nH]c2ccc(C(F)(F)F)cc12` [Compound 385, 3-(methylsulfonylmethyl)-5-(trifluoromethyl)-2-[4-[4-(trifluoromethyl)-3-pyridyl]-1,2,4-triazol-3-yl]-1H-indole] the value was at most 100 nM. In the case of `FC(F)(F)c1ccc2[nH]c(-c3nncn3-c3c(Cl)ccc4[nH]ncc34)nc2c1` [Compound 209, 5-chloro-4-(3-(5-(trifluoromethyl)-1H-benzo[d]imidazol-2-yl)-4H-1,2,4-triazol-4-yl)-1H-indazole] it was at most 100 nM; in that of `CN(c1ccc2[nH]c(-c3nncn3-c3cnccc3C(F)(F)F)nc2c1)S(C)(=O)=O` [Compound 341, N-methyl-N-[2-[4-[4-(trifluoromethyl)-3-pyridyl]-1,2,4-triazol-3-yl]-1H-benzimidazol-5-yl]methanesulfonamide], 100 to 500 nM; in that of `Cc1ccc2[nH]c(-c3[nH]nnc3C3CCCC3)nc2c1` [Compound 33, 2-(4-cyclopentyl-1H-1,2,3-triazol-5-yl)-5-methyl-1H-benzo[d]imidazole], over 1000 nM.

For the compound `CC(C)(C)c1ccc2[nH]c(-c3nncn3-c3cnccc3C(F)(F)F)cc2n1` [Compound 348, 5-(tert-butyl)-2-(4-(4-(trifluoromethyl)pyridin-3-yl)-4H-1,2,4-triazol-3-yl)-1H-pyrrolo[3,2-b]pyridine], the IC50 is at most 100 nM. Regarding `Fc1cc(C(F)(F)F)cc2nc(-c3nnc(CC(F)F)n3-c3cnccc3C(F)(F)F)[nH]c12` [Compound 317, 2-(5-(2,2-difluoroethyl)-4-(4-(trifluoromethyl)pyridin-3-yl)-4H-1,2,4-triazol-3-yl)-7-fluoro-5-(trifluoromethyl)-1H-benzo[d]imidazole], the concentration for half-maximal inhibition (IC50) was at most 100 nM. On to `FC(F)(F)Oc1ccc(Oc2ncco2)cc1-n1cnnc1-c1nc2cc(C(F)(F)F)ccc2[nH]1` [Compound 281, 2-(4-(trifluoromethoxy)-3-(3-(5-(trifluoromethyl)-1H-benzo[d]imidazol-2-yl)-4H-1,2,4-triazol-4-yl)phenoxy)oxazole], for which the IC50 was at most 100 nM. Take `COc1ccc(-c2cccc(Cl)c2Cl)c(-c2nc3cc(C(F)(F)F)ccc3[nH]2)n1` [Example 60]: the concentration for half-maximal inhibition (IC50) is over 1000 nM. Take `CC(CN(C)C)c1ccc2[nH]c(-c3nncn3-c3cnccc3C(F)(F)F)nc2c1` (centres unmarked) [Compound 365]: the IC50 is over 1000 nM.
